Results: patent publication US9623031B2, “Compositions, methods and kits for treating cancer” (priority 2011, dated 2017)
“Also recorded” adds a separate entry of the source.

Columns and labels:
[1] = system: BCR-ABL^+LSC transplanted mice; experiment: Murine CML model: mice transplanted with BCR-ABL+ LSCs; assay type: in vivo, mouse
Procedure: Induction of CML using MIGR-BCR-ABL retrovirus: MIGR-BCR-ABL and control MSCV-GFP retroviruses were obtained. […] C57BL/6 mice were treated with 5-fluorouracil (5-FU; 150 mg/Kg, Sigma, St. Louis, Mo.) to enrich for cycling HSCs. On day four after treatment bone marrow cells were harvested and infected with MIGR-BCR-ABL or MSCV-GFP control virus overnight in IMDM media containing 5% FCS and supplemented with 2.5 ng/ml IL-3 and 15 ng/ml SCF (R&D Systems Minneapolis, Minn.). 0.5×10^6 transduced cells were transplanted by retro-orbital injection into C57BL/6 recipient mice that were preconditioned with 950 Rads of irradiation. In order to increase the number of CML and control mice, 17 days after transplant GFP^+ spleen cells were isolated by FACS and 1×10^5 GFP^+ cells were transplanted into irradiated (950 Rads) secondary C57BL/6 recipients. Two weeks after transplant, mice were treated as indicated with CyPGs and vehicle control. For ex-vivo experiments, Kit^+Sca1^+Lin^−GFP^+ cells were isolated from the bone marrow or spleen of transplanted mice by FACS. The sorted cells were cultured in Methocult media M3334 (Stem Cell Technologies Vancouver BC) M3334 supplemented with Shh, SCF, and BMP4 and treated with the indicated CyPGs and vehicle controls for indicated time periods. […] The hematopoietic colonies (colony forming cells in culture, CFC) were scored.
Treatment of Mice with PGs: Mice with FV-induced erythroleukemia or MIGR-BCR-ABL induced CML were treated on the indicated days with CyPGs. Mice were treated with a daily intraperitoneal injection of Δ^12-PGJ3 (0.01-0.1 mg/kg), 15d-PGJ2 (0.1 mg/kg), or 9,10-dihydro-15d-PGJ2 (0.1 mg/kg) for 7 days. All three compounds were formulated with hydroxypropyl-β-cyclodextrin (30% w/v; Sigma; vehicle control).

[2] = system: MSCV-GFP^+ HSC transplanted mice (steady state hematopoiesis); experiment: Control mice transplanted with MSCV-GFP+ HSCs, treated; conditions: mouse, in vivo
Procedure: Induction of CML using MIGR-BCR-ABL retrovirus: MIGR-BCR-ABL and control MSCV-GFP retroviruses were obtained. […] C57BL/6 mice were treated with 5-fluorouracil (5-FU; 150 mg/Kg, Sigma, St. Louis, Mo.) to enrich for cycling HSCs. On day four after treatment bone marrow cells were harvested and infected with MIGR-BCR-ABL or MSCV-GFP control virus overnight in IMDM media containing 5% FCS and supplemented with 2.5 ng/ml IL-3 and 15 ng/ml SCF (R&D Systems Minneapolis, Minn.). 0.5×10^6 transduced cells were transplanted by retro-orbital injection into C57BL/6 recipient mice that were preconditioned with 950 Rads of irradiation. In order to increase the number of CML and control mice, 17 days after transplant GFP^+ spleen cells were isolated by FACS and 1×10^5 GFP^+ cells were transplanted into irradiated (950 Rads) secondary C57BL/6 recipients. Two weeks after transplant, mice were treated as indicated with CyPGs and vehicle control. For ex-vivo experiments, Kit^+Sca1^+Lin^−GFP^+ cells were isolated from the bone marrow or spleen of transplanted mice by FACS. The sorted cells were cultured in Methocult media M3334 (Stem Cell Technologies Vancouver BC) M3334 supplemented with Shh, SCF, and BMP4 and treated with the indicated CyPGs and vehicle controls for indicated time periods. […] The hematopoietic colonies (colony forming cells in culture, CFC) were scored. […]

p53 [3] = experiment: p53 expression in FV-LSCs treated ex vivo (RT-PCR, nuclear extracts); assay type: cell-based, mouse; conditions: 12 h
p53 [4] = experiment: p53 expression in BCR-ABL+ LSCs treated ex vivo; assay type: cell-based, mouse; conditions: 25 nM ex vivo
[5] = system: murine erythroleukemia (MEL) cells; experiment: MEL cell apoptosis and viability (MTT, CCK-8); assay type: cell-based, mouse
Procedure: Cell culture. Murine erythroleukemia (MEL) cells were cultured in DMEM with 10% FBS. In order to examine the production 3-series PGs, BALB/c-derived RAW264.7 macrophage-like cells (ATCC) were cultured in DMEM containing 5% FBS, 250 nM sodium selenite, and 50 μM EPA (as BSA conjugate) for 72 h followed by stimulation with E. coli endotoxin lipopolysaccharide (LPS; Serotype 0111B4; 50 ng/ml) for 30 min. The cells were cultured in fresh DMEM for an additional 24-144 h. Cells cultured with cell culture-grade fatty acid free BSA (Sigma Aldrich) served as a control. Culture media was withdrawn at various times and analyzed for 3-series PGs as described below. Total RNA was isolated from cells or tissues using Trizol reagent as per the instructions of the supplier (Invitrogen, Carlsbad, Calif.) and cDNA was prepared using a High Capacity cDNA Reverse Transcriptase kit (Applied Biosystems, Foster City, Calif.). Semiquantitative RT-PCR for p53 and β-actin was performed with primers as described in Supplementary Methods. Nuclear and cytoplasmic protein extracts of LSCs were prepared using standard methods previously described (Vunta H et al., J Biol Chem. 2007; 282:17964-17973).
Cell viability studies. MEL cells were cultured in DMEM containing 10% FBS and treated with various commonly used anti-leukemic drugs such as daunorubicin (DNR), mitoxantrone (MIT), and cytarabine (CYT) at a final concentration […] for 24 h. […] After 24 h of drug treatment, cell proliferation was measured by MTT assay with CCK-8 kit from Dojindo Molecular Technologies, Inc. (Gaithersburg, Md.). All viability values reported are relative to untreated cells (UT) that was designated to be 100%. Results represent the mean±SEM of three independent observations.
In order to address whether MEL cells are resistant in general to chemotherapy agents, we tested whether MEL cells can be killed by apoptosis when treated with standard anti-leukemia drugs. Treatment with various commonly used anti-leukemic drugs such as daunorubicin (DNR), mitoxantrone (MIT), and cytarabine (CYT) at a final concentration 1 μM for 24 h. […] After 24 h of drug treatment, cell proliferation was measured by MTT assay with CCK-8 kit from Dojindo Molecular Technologies, Inc. (Gaithersburg, Md.). […] The results represent the mean±SEM of three independent observations.

[6] = system: blast crisis CML cells from a patient (#011711); experiment: Blast crisis CML patient cells: cytospin and annexin V apoptosis; assay type: cell-based, human
Procedure: An experiment involving a cytospin of Blast crisis CML (011711) and Geimsa stain was performed. Blast crisis CML were cultured in IMDM with BIT, LDL, L-Glu and treated with PBS or 100 nM Δ^12-PGJ3 for 12 hrs. Cells were collected and slides were done by Cytospin. Cytospin slides were stained with Wright Geimsa stain and pictures (100×) were recorded on a Material microscope.
In this experiment, 110,000/well primary AML cells were cultured in above specified media for 6 and 12 hrs. Cells were collected and washed once with ice cold PBS. The cells were resuspended in 200 ul 1× Apoptosis buffer with annexin-V PE to all tubes. The cells were washed in PBS and resuspended in 600 ul PBS and transfer into flow tubes and analyzed for apoptosis (Annexin V+ cells) on FC-500. […] In this experiment, 110,000/well AML cells were cultured in earlier mentioned media for 6 and 12 hrs. Cells were collected and washed once in PBS and resuspended in 200 ul PBS and blocked with FC receptor antibody 10 mins RT. The following antibodies were added: CD38, CD123, CD34, CD117 (BD bioscience) for 1 hr on ice. Cells were washed in PBS once and resuspended in 200 ul of apoptotic buffer, and annexin V was added and incubated for 15 mins. Apoptotic cells (Annexin V+ cells) were counted by flow cytometry. […] Apoptotic cells (Annexin V+ cells) were counted by flow cytometry.

[7] = system: primary human AML cells; LSCs (CD34+CD38−CD123+); experiment: Apoptosis of primary human AML cells and AML LSCs (annexin V); assay type: cell-based
Procedure: In this experiment, 110,000/well primary AML cells were cultured in above specified media for 6 and 12 hrs. Cells were collected and washed once with ice cold PBS. The cells were resuspended in 200 ul 1× Apoptosis buffer with annexin-V PE to all tubes. The cells were washed in PBS and resuspended in 600 ul PBS and transfer into flow tubes and analyzed for apoptosis (Annexin V+ cells) on FC-500. […] In this experiment, 110,000/well AML cells were cultured in earlier mentioned media for 6 and 12 hrs. Cells were collected and washed once in PBS and resuspended in 200 ul PBS and blocked with FC receptor antibody 10 mins RT. The following antibodies were added: CD38, CD123, CD34, CD117 (BD bioscience) for 1 hr on ice. Cells were washed in PBS once and resuspended in 200 ul of apoptotic buffer, and annexin V was added and incubated for 15 mins. Apoptotic cells (Annexin V+ cells) were counted by flow cytometry. […] Cells were collected and washed once in PBS and resuspended in 200 ul PBS and blocked with FC receptor antibody 10 mins RT. The following antibodies were added: CD38, CD123, CD34 (BD bioscience) for 1 hr on ice. Cells were washed in PBS once and resuspended in 200 ul of apoptotic buffer, and annexin V was added and incubated for 15 mins. Apoptotic cells (Annexin V+ cells) were counted by flow cytometry.
Referring to the results shown in FIG. 16, these experiments were performed with primary AML stem cells isolated from a patient. […] In an identical experiment, the cells were also treated with a synthetic DP agonist, ZK118182 (100 nM). Apoptosis of cells (by annexin V staining) was measured using flow cytometry.

MCL-1 = MCL-1 expression in primary AML cells (real time PCR); assay type: cell-based, human
Procedure: MCL-1 expression in Δ^12-PGJ3 treated AML was examined. MCL-1 is an antiapoptotic gene that belongs to the Bcl-2 family. Total RNA and cDNA were isolated from primary AML cells as indicated above. MCl-1 expression was measured using real time PCR. (Hs01050896-ml, Applied Biosystems).

SMILES: CC/C=C\C[C@H](O)C/C=C1/C(=O)C=C[C@@H]1C/C=C\CCCC(=O)O [Δ^12-PGJ3, Δ^12-prostaglandin J3]
- splenomegaly ([1]; 0.05 mg/kg for 1 week): completely alleviated splenomegaly
- Kit+Sca1+GFP+ LSCs in the spleen ([1]; 1 week treatment): decreased
- Kit+Sca1+Lin−GFP+ LSCs in the bone marrow ([1]; 1 week treatment): eradicated
- leukocyte counts in peripheral blood ([1]; 1 week treatment): significantly decreased the leukocyte counts
- survival and relapse, comparison with imatinib ([1]; Imatinib 75 mg/kg, Δ^12-PGJ3 0.025 mg/kg, 1 week): prolonged survival, but no relapse of leukemia
- relapse after last dose ([1]; intraperitoneal, five weeks post last dose): no relapse
- survival ([1]; vehicle mice died two weeks after transplantation): rescued all of the mice
- WBC counts, other hematological parameters, survival [2]: had no effect on WBC counts or other hematological parameters or survival
- p53 expression at transcript level (p53 [3]; 10 or 25 nM): significant upregulation of p53 expression
- nuclear levels of p53 protein (p53 [3]; sorted LSC): increase in the nuclear levels of p53 protein
- p53 mRNA (p53 [4]): increase in p53 transcription
- apoptosis of MEL cells (lack functional p53) [5]: cannot induce apoptosis; also recorded: failed to initiate apoptosis
- cell death, cytospin with Wright Geimsa stain ([6]; 100 nM, 12 hrs): death of blast-crisis CML cells
- apoptosis (Annexin V+ cells) ([6]; 6 and 12 hrs): induces apoptosis in BC-CML primary patient cells
- apoptosis of AML LSCs (Annexin V+ fraction of CD34+CD38−CD123+ cells) ([7]; 100 nM, 6 h, patients #100810, #123009, #033107, #041909, #101308): targeted the LSCs in all these samples
- apoptosis of primary human AML cells (Annexin V+) ([7]; 100 nM, 6 and 12 hrs): induces apoptosis of primary human AML cells
- apoptosis of primary AML cells from bone marrow of an AML patient (72% CD133+) ([7]; 5, 50, 100 nM, 6 and 24 h, annexin V): effective even in human primary leukemia stem cells
- MCL-1 expression (MCL-1): decreases the expression MCL1
